Data published in patent US20240238425A1, “HSD17B13 Inhibitors and/or Degraders” (Pfizer Inc., priority 2022, published 2024).
Structures can show the parent of a compound that is named as a salt.

System: HiBiT-HSD17β13 fusion protein (N-terminal HiBiT-tagged HSD17β13 isoform D) in Huh7 HiBiT-HSD17β13 OE cells
Test: Whole-cell Huh7-HSD17B13 HiBiT assay (degrader potency and maximal efficacy, luminescence readout)
Format: cell-based, human
Details: 24 hour incubation, geometric mean, * = geometric mean for all forms tested (parent and salt forms); for DC50: read-out: Huh7_HIBIT-HSD17β13_DC50 GMean DC50; for Huh7_HIBIT-HSD17β13_DC50 GMean Asymptote Maximum: max. concentration 1 μM
Outline: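 Luminescence from lytic HiBiT detection tracked residual HiBiT-HSD17β13 (isoform D, N-terminal tag) in a stable Huh7 overexpressing clone after 24 h compound treatment at 37° C, 11 concentrations up to 1 μM final. Percent effect used DMSO (zero) and parental Huh7 (high) wells; four-parameter fit gave 50% degradation; viability checked by CellTiter-Glo.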

SMILES | DC50 | Huh7_HIBIT-HSD17β13_DC50 GMean Asymptote Maximum
Cn1c(=O)n(C2CCC(=O)NC2=O)c2ccc(CCCN3CCc4nc(-c5ccc6cn([C@H]7CC[C@H](CNC(=O)c8cc(F)c(O)c(F)c8F)CC7)nc6c5)ncc4C3)cc21 (mixture of isomers) [Example 87, N-{[(1r,4r)-4-{6-[6-(3-{1-[(3RS)-2,6-dioxopiperidin-3-yl]-3-methyl-2-oxo-2,3-dihydro-1H-benzimidazol-5-yl}propyl)-5,6,7,8-tetrahydropyrido[4,3-d]pyrimidin-2-yl]-2H-indazol-2-yl}cyclohexyl]methyl}-2,3,5-trifluoro-4-hydroxybenzamide] | 0.5 nM | 78%
Cn1c(=O)n(C2CCC(=O)NC2=O)c2ccc(CCCN3CCc4cc(-c5ccc6cn([C@H]7CC[C@H](CNC(=O)c8cc(F)c(O)c(F)c8F)CC7)nc6c5)ncc4C3)cc21 (mixture of isomers) [Example 88, N-{[(1r,4r)-4-{6-[7-(3-{1-[(3RS)-2,6-dioxopiperidin-3-yl]-3-methyl-2-oxo-2,3-dihydro-1H-benzimidazol-5-yl}propyl)-5,6,7,8-tetrahydro-2,7-naphthyridin-3-yl]-2H-indazol-2-yl}cyclohexyl]methyl}-2,3,5-trifluoro-4-hydroxybenzamide] | 1.5 nM | 81%
Cn1c(=O)n(C2CCC(=O)NC2=O)c2ccc(CCCN3CCN(c4ccc(-c5ccc6cn([C@H]7CC[C@H](CNC(=O)c8cc(F)c(O)c(F)c8F)CC7)nc6c5)cn4)CC3)cc21 (mixture of isomers) [Example 92, N-{[(1r,4r)-4-(6-{6-[4-(3-{1-[(3RS)-2,6-dioxopiperidin-3-yl]-3-methyl-2-oxo-2,3-dihydro-1H-benzimidazol-5-yl}propyl)piperazin-1-yl]pyridin-3-yl}-2H-indazol-2-yl)cyclohexyl]methyl}-2,3,5-trifluoro-4-hydroxybenzamide] | 0.4 nM | 87%
Cn1c(=O)n(C2CCC(=O)NC2=O)c2ccc(CCCN3CCN(c4cc5cn([C@H]6CC[C@H](CNC(=O)c7cc(F)c(O)c(F)c7F)CC6)nc5cn4)CC3)cc21 (mixture of isomers) [Example 93, N-{[(1r,4r)-4-{5-[4-(3-{1-[(3RS)-2,6-dioxopiperidin-3-yl]-3-methyl-2-oxo-2,3-dihydro-1H-benzimidazol-5-yl}propyl)piperazin-1-yl]-2H-pyrazolo[3,4-c]pyridin-2-yl}cyclohexyl]methyl}-2,3,5-trifluoro-4-hydroxybenzamide, formate salt] | 0.69 nM | 83%
Cn1c(=O)n(C2CCC(=O)NC2=O)c2ccc(CCCN3CCN(c4ccc5cn([C@]67CC[C@](CNC(=O)c8cc(F)c(O)c(F)c8F)(CC6)CC7)nc5c4)CC3)cc21 (mixture of isomers) [Example 94, N-[(4-{6-[4-(3-{1-[(3RS)-2,6-dioxopiperidin-3-yl]-3-methyl-2-oxo-2,3-dihydro-1H-benzimidazol-5-yl}propyl)piperazin-1-yl]-2H-indazol-2-yl}bicyclo[2.2.2]octan-1-yl)methyl]-2,3,5-trifluoro-4-hydroxybenzamide] | 0.21 nM | 84%
Cn1c(=O)n(C2CCC(=O)NC2=O)c2ccc(CCCN3CCN(c4ncc(-c5ccc6cn([C@]78CC[C@](CNC(=O)c9cc(F)c(O)c(F)c9F)(CC7)CC8)nc6c5)cn4)CC3)cc21 (mixture of isomers) [Example 95, N-{[4-(6-{2-[4-(3-{1-[(3RS)-2,6-dioxopiperidin-3-yl]-3-methyl-2-oxo-2,3-dihydro-1H-benzimidazol-5-yl}propyl)piperazin-1-yl]pyrimidin-5-yl}-2H-indazol-2-yl)bicyclo[2.2.2]octan-1-yl]methyl}-2,3,5-trifluoro-4-hydroxybenzamide, trifluoroacetate salt] | 0.24 nM | 80%
Cn1c(=O)n(C2CCC(=O)NC2=O)c2ccc(CCCN3CCOC4(C3)CN(c3ccc5cn([C@H]6CC[C@H](CNC(=O)c7cc(F)c(O)c(F)c7F)CC6)nc5c3)C4)cc21 (mixture of isomers) [Example 98, N-{[(1r,4r)-4-{6-[8-(3-{1-[(3RS)-2,6-dioxopiperidin-3-yl]-3-methyl-2-oxo-2,3-dihydro-1H-benzimidazol-5-yl}propyl)-5-oxa-2,8-diazaspiro[3.5]nonan-2-yl]-2H-indazol-2-yl}cyclohexyl]methyl}-2,3,5-trifluoro-4-hydroxybenzamide, trifluoroacetate salt] | 0.82 nM | 78%
Cn1c(=O)n(C2CCC(=O)NC2=O)c2ccc(CCCN3CCn4cc(-c5ccc6cn([C@H]7CC[C@H](CNC(=O)c8cc(F)c(O)c(F)c8F)CC7)nc6c5)nc4C3)cc21 (mixture of isomers) [Example 100, N-{[(1r,4r)-4-{6-[7-(3-{1-[(3RS)-2,6-dioxopiperidin-3-yl]-3-methyl-2-oxo-2,3-dihydro-1H-benzimidazol-5-yl}propyl)-5,6,7,8-tetrahydroimidazo[1,2-a]pyrazin-2-yl]-2H-indazol-2-yl}cyclohexyl]methyl}-2,3,5-trifluoro-4-hydroxybenzamide, formate salt] | 2.2 nM | 84%
Cn1c(=O)n(C2CCC(=O)NC2=O)c2ccc(CCCN3CC[C@@H]4CN(c5ccc6cn([C@H]7CC[C@H](CNC(=O)c8cc(F)c(O)c(F)c8F)CC7)nc6c5)C[C@H]4C3)cc21 (mixture of isomers) [Example 101, N-{[(1r,4r)-4-{6-[(3aR,7aS)-5-(3-{1-[(3RS)-2,6-dioxopiperidin-3-yl]-3-methyl-2-oxo-2,3-dihydro-1H-benzimidazol-5-yl}propyl)octahydro-2H-pyrrolo[3,4-c]pyridin-2-yl]-2H-indazol-2-yl}cyclohexyl]methyl}-2,3,5-trifluoro-4-hydroxybenzamide, formate salt] | 0.88 nM | 74%
Cn1c(=O)n(C2CCC(=O)NC2=O)c2ccc(CCCN3C[C@@H]4CCN(c5ccc6cn([C@H]7CC[C@H](CNC(=O)c8cc(F)c(O)c(F)c8F)CC7)nc6c5)C[C@@H]4C3)cc21 (mixture of isomers) [Example 102, N-{[(1r,4r)-4-{6-[(3aS,7aR)-2-(3-{1-[(3RS)-2,6-dioxopiperidin-3-yl]-3-methyl-2-oxo-2,3-dihydro-1H-benzimidazol-5-yl}propyl)octahydro-5H-pyrrolo[3,4-c]pyridin-5-yl]-2H-indazol-2-yl}cyclohexyl]methyl}-2,3,5-trifluoro-4-hydroxybenzamide, formate salt] | 1.5 nM | 74%
Cn1c(=O)n(C2CCC(=O)NC2=O)c2ccc(CCN3Cc4ccc(-c5ccc6cn([C@H]7CC[C@H](CNC(=O)c8cc(F)c(O)c(F)c8F)CC7)nc6c5)cc4C3)cc21 (mixture of isomers) [Example 106, N-{[(1r,4r)-4-{6-[2-(2-{1-[(3RS)-2,6-dioxopiperidin-3-yl]-3-methyl-2-oxo-2,3-dihydro-1H-benzimidazol-5-yl}ethyl)-2,3-dihydro-1H-isoindol-5-yl]-2H-indazol-2-yl}cyclohexyl]methyl}-2,3,5-trifluoro-4-hydroxybenzamide, trifluoroacetate salt] | 0.22 nM | 80%
